From patent US12565475B2, “Small molecule compound inhibiting signal transmission path of TLR7 and TLR9 and use thereof” (AJOU UNIVERSITY INDUSTRY-ACADEMIC COOPERATION FOUNDATION, priority 2019, dated 2026)

Tests used:
TLR9 [1] = molecular target: T1, TLR9 (Homo sapiens, UniProt Q9NR96); details: Target TLR9; values from cited literature/patent; cited from earlier work
T1 sequence (Q9NR96 26-1032): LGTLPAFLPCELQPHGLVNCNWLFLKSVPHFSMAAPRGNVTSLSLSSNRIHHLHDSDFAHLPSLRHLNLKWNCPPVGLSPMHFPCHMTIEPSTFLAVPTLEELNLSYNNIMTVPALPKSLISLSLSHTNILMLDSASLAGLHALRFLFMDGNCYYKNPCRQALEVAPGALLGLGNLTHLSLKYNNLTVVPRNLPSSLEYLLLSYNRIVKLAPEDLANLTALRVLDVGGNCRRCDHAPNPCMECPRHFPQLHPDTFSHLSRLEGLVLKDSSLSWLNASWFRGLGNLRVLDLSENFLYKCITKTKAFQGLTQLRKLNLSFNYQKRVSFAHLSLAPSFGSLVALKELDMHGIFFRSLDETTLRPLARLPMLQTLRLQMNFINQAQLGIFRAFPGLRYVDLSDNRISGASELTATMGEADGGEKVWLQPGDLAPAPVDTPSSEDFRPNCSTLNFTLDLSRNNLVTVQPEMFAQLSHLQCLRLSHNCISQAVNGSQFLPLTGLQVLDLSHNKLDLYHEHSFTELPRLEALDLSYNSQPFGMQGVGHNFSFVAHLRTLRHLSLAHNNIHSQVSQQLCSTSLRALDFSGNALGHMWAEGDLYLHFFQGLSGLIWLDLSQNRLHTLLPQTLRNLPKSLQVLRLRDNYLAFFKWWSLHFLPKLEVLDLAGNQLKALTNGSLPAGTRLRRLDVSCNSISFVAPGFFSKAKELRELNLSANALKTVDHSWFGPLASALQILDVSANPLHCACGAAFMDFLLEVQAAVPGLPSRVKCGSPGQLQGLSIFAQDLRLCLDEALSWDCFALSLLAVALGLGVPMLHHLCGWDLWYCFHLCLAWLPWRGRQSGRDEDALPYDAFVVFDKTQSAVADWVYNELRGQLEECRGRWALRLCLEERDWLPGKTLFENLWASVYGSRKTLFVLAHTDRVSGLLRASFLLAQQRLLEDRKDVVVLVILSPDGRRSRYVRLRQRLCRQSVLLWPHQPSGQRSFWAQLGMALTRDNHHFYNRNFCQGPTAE

TLR9 [2] = molecular target: T2, TLR9 (Mus musculus, UniProt Q9EQU3); assay: TLR9-mediated TNF-α secretion (ODN2395 stimulation), ELISA; assay type: cell-based, murine; details: for inhibitory efficacy on TLR9-mediated TNF-α secretion: RAW 264.7, 10 or 50 μM, ODN2395 (FIG. 4A)
T2 construct: endogenous in cells; host or cells: RAW 264.7
T2 sequence (Q9EQU3 26-1032): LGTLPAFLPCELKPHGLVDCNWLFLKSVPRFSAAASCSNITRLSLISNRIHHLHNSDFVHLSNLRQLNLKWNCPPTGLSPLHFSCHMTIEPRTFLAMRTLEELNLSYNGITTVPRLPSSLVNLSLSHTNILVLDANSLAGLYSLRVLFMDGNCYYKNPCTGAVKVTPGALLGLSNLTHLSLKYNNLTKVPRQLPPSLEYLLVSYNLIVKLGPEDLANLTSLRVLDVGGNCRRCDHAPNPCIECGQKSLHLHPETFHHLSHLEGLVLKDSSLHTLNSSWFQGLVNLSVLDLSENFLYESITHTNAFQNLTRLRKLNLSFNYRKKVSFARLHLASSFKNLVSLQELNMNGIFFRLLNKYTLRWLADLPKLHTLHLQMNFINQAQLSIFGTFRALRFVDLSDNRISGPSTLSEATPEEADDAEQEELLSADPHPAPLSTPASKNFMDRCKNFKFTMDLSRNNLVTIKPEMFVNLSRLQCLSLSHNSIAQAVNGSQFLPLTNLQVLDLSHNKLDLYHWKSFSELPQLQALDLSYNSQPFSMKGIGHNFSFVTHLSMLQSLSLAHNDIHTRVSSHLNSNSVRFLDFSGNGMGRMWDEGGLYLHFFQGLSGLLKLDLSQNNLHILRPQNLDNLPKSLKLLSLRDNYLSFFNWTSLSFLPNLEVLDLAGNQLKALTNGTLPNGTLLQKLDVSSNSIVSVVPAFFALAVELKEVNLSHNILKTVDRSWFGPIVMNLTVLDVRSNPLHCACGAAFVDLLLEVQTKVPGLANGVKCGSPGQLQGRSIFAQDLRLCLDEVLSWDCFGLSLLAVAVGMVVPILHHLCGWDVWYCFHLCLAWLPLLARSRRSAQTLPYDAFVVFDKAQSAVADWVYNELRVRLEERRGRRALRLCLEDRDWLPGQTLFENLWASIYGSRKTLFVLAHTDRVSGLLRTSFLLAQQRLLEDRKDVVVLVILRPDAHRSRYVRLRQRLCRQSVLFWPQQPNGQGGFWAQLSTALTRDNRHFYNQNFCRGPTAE
Description: (§1) Agonists specific to TLR1/TLR2 (Pam3CSK4), TLR2/TLR6 (FSL-1), TLR3 (Poly I:C), TLR7 (imiquimod), and TLR8 (TL8-506) were purchased from InvivoGen Ltd. (Hong-Kong, China), and a TLR4-specific agonist (LPS from E. coli O111:B4) was purchased from Sigma-Aldrich, Inc. For TLR9-specific stimulation, class C CpG-ODN (ODN2395, 5′-TCGTCGTTTTCGGCGCGCGCCG-3′) having full phosphorothioate backbone modification was synthesized (Bioneer, Inc., Daejeon, Korea). All TLR agonists were dissolved in deionized water and applied to a culture media for TLR activation. The cells were treated with test compounds or a control medium for 1 hour, and then stimulated with a TLR agonist for 4 hours, or 24 hours in the case of poly(I:C), and the cytokine secretion was monitored.
(§2) RAW 264.7 or differentiated THP-1 cell lines were seeded onto a 96-well culture plate at a density of 2×10^4 cells/well. The cells were treated with test compounds for 1 hour followed by the stimulation with TLR agonists for 4 hours. The supernatant was transferred to pre-coated assay plates, and the secretion levels of mouse and human TNF-α were measured by respective ELISA kits (Invitrogen, Carlsbad, CA, USA). All experiments were performed according to the manufacturer's instructions. Absorbance was measured by a microplate reader spectrophotometer (Molecular Devices, Inc., San Jose, CA, USA), and data was interpolated from a standard curve using SoftMax Pro 5.3 software (Molecular Devices, Inc.).
(§3) In order to evaluate the antagonistic effect of each compound on TLR7/TLR9 through ELISA (enzyme-linked immunosorbent assay), RAW 264.7 cells were pretreated with the eight compounds followed by the stimulation with a TLR7-specific agonist (imiquimod, 3.61 μM) or with a TLR9-specific agonist (ODN2395, 0.5 μM). […] Since the two ligands had no agonistic effect per se (FIG. 3B), the increased cytokine production may be due to cell activation (or non-specific cellular stress) by co-treatment. Consequently, TIC10 was selected as the most suitable lead for further optimization to improve the inhibitory potency against both TLR7 and TLR9.

TLR7 = molecular target: T3, TLR7 (Mus musculus, UniProt P58681); assay: TLR7-mediated TNF-α secretion (imiquimod stimulation), ELISA; assay type: cell-based, murine; details: for inhibitory efficacy on TLR7-mediated TNF-α secretion: RAW 264.7, 10 or 50 μM, imiquimod (FIG. 4B)
T3 construct: endogenous in cells; host or cells: RAW 264.7
T3 sequence (P58681 27-1050): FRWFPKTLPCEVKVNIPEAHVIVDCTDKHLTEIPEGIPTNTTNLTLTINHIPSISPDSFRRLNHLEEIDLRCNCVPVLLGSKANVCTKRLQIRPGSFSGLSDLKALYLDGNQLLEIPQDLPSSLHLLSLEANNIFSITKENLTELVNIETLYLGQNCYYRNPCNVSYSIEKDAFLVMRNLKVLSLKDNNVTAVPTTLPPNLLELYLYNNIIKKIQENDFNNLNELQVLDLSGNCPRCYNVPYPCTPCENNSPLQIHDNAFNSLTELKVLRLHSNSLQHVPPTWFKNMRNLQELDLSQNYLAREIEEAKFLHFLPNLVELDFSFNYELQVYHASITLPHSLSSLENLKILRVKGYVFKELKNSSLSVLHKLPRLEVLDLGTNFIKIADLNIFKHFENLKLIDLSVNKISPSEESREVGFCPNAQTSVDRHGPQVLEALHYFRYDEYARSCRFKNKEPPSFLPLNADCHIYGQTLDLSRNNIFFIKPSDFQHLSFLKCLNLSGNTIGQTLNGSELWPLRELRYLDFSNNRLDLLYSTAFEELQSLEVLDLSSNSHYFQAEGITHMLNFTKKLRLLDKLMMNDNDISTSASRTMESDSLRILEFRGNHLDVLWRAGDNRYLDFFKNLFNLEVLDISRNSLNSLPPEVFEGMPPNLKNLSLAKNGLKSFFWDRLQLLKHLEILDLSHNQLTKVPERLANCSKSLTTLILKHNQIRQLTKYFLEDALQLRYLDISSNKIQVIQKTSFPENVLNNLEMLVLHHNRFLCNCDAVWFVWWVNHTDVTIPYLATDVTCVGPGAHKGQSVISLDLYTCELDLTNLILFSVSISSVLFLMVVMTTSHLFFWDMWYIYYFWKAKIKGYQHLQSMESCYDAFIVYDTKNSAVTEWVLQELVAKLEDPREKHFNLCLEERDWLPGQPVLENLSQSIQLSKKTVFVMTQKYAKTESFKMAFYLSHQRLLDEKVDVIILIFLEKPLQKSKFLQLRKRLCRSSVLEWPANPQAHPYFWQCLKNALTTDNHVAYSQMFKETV
Description: as §1, §2, §3

RAW 264.7 cells [3] = assay: MTT cell viability / cytotoxicity assay; assay type: cell-based, murine; details: 50 μM, 24 hours
Description: RAW 264.7 cells were seeded onto 96-well cell culture plate at a density of 2×10^4 cells/well and allowed to stabilize overnight. The cells were treated with test compounds or a negative control (DMSO; dimethyl sulfoxide) for 24 hours, where the final DMSO concentration of the treated well was 0.25%. Then, the medium was removed, and 500 μg/ml of an MTT (3-(4,5-dimethylthiazol-2-yl)-2,5-diphenyltetrazolium bromide, InvivoGen Ltd.) solution was added to each well. After 3 hours, the solution was replaced with DMSO (Biosesang Co. Ltd., Korea), and incubated for an additional 30 minutes to complete formazan dissolution. Absorbance was measured by a microplate colorimetric reader at a wavelength of 595 nm and normalized to the control for the determination of the cell viability. All incubations were performed under the same conditions as described above.
Before testing the antagonistic properties of the selected compounds, an MTT (3-(4,5-dimethylthiazol-2-yl)-2,5-diphenyltetrazolium bromide) assay was performed, whereby the cytotoxicity of the compounds in a murine macrophage cell line (RAW 264.7) was monitored. […] The other ligands were excluded as test subjects due to the high cytotoxicity thereof.

RAW 264.7 cells [4] = assay: Agonistic activity: TNF-α secretion after stimulation with compound alone (ELISA); assay type: cell-based, murine; details: compound alone 24 hours

Row | Structure (SMILES) | IC50 (TLR9 [1]) [µM] | inhibitory efficacy on TLR9-mediated TNF-α secretion (TLR9 [2]) | inhibitory efficacy on TLR7-mediated TNF-α secretion (TLR7) | other results
1 | CN(C)CCNc1nc(-c2ccc(N3CCN(C)CC3)cc2)nc2ccccc12 [CHEMBL515364] | 0.03 | – | – | –
2 | CCOc1ccc(-c2cnc(NCc3cccc(OC)c3OC)n2C)cc1 [TIC10-8] | – | improved inhibitory efficacy compared to TIC10 | improved inhibitory efficacy compared to TIC10 | –
3 | COc1ccc(-c2cnc(NCc3cccc(OC)c3O)n2C)cc1 [TIC10, 2-methoxy-6-({[5-(4-methoxyphenyl)-1-methyl-1H-imidazol-2-yl]amino}methyl)phenol] | – | – | – | cytotoxicity (MTT assay) (RAW 264.7 cells [3]): non-toxic or marginally toxic; inhibition of TLR9-mediated TNF-α secretion (TLR9 [2]; RAW 264.7, 50 μM, pretreated 1 hour, ODN2395 0.5 μM 4 hours): significantly inhibit; expression of proinflammatory cytokine TNF-α on stimulation with ligand alone (agonistic role) (RAW 264.7 cells [4]): did not induce the expression of proinflammatory cytokine TNF-α; inhibition of TLR7-mediated TNF-α secretion (TLR7; RAW 264.7, at 50 µM, pretreated 1 hour, imiquimod 3.61 μM 4 hours): inhibited
4 | COc1cc2nc(-c3ccc(N4CCN(C)CC4)cc3)nc(NCCN3CCOCC3)c2cc1OC [CPG-52364] | 0.0046 | – | – | –
5 | CCOc1ccc(-c2cnc(NCc3ccc(OC)c(OC)c3OC)n2C)cc1 [TIC10-3] | – | improved inhibitory efficacy compared to TIC10 | improved inhibitory efficacy compared to TIC10 | –
6 | CN1CCN(c2ccc(-c3nc(NCCN4CCOCC4)c4ccccc4n3)cc2)CC1 [CHEMBL457704] | 0.02 | – | – | –
